Format in all cases: in vivo, nude mice
The subject of assay [1] is Human colon carcinoma cell line LS-180. Description: Treatment of human colon carcinoma LS-180 xenograft with A—Z—CINN 551. As to the method:
Human colon carcinoma cell line LS-180 is grown in cell culture as described (Kinuya et.al. 2001. J. Nucl. Med. 42:596-600). 1×10^7 cells/mouse are implanted s.c. into nude mice. When the tumors reached 150-200 mm^3 in size, A—Z—CINN 551 is used to treat the tumor as follows; 0.1-1.0 mg of A—Z—CINN 551 (1 mg mAb protein with ˜25 ug paclitaxel covalently attached) is injected i.v. via tail vein into mice with the tumor. After 6 hours, mice that received 0.1, 0.5 or 1.0 mg of A—Z—CINN […] are anesthetized with a Ketamine/Rompun mixture. A 16 G needle is used to create a hole in the skin and a 1 mm fiber optic probe is inserted up to the tumor. The tumor is exposed to white light for 5 minutes with a power of about 0.5 mW/cm^2. […] All mice are kept under “red lights” to prevent unnecessary light exposure and activation of A—Z—CINN 551 for 72 hours post injection, then returned to normal light/dark cycle.

Assay [2] has as its system Human lung carcinoma cell line H2987. As to the kind of experiment: Treatment of human lung carcinoma H2987 xenograft with A—Z—CINN 441. The procedure: MAb BR110 is a murine mAb to a 66-kDa glycoprotein that is found on the cell surface of human lung, colon and breast tumor cells. Human lung carcinoma cell line H2987 is grown in cell culture as described (U.S. Pat. No. 5,840,854). 1×10^7 cells/mouse are implanted s.c. into a nude mice. When the tumors reached 150-200 mm^3 in size, A—Z—CINN 441 is used to treat the tumor as follows: 0.1-1.0 mg of A—Z—CINN 441 (1 mg mAb protein with ˜25 ug paclitaxel covalently attached) is injected i.v. via tail vein into mice with the tumor. After 6 hours, mice that receive 0.1, 0.5 or 1.0 mg of A—Z—CINN 441 are anesthetized with a Ketamine/Rompun mixture. A 16G needle is used to create a hole in the skin and a 1 mm fiber optic probe is inserted up to the tumor. The tumor is exposed to white light for 5 minutes with a power of about 0.5 mW/cm^2. […] All mice are kept under “red lights” to prevent light activation of the drug, for 72 hours post injection, then returned to normal light/dark cycle. […] Groups that receive antibody and free drug (unlinked) show tumor growth, and by 28 days the mice either die or have tumors>800 mm^3.
For orientation: In xenograft studies the graft and the host belong to different species.

Assay [3] has as its system Human breast cancer xenographs. Description: Treatment of human breast carcinoma xenographs with A—Z—CINN 361. The procedure:
Human breast cancer xenographs are prepared as described (Burak et.al. 1998. Nucl. Med. Biol. 25:633-637) Xenographs are implanted s.c. into a nude mice. When the tumor reached 150-200 mm^3 in size, A—Z—CINN 361 is used to treat the tumor as follows; 0.1-1.0 mg of A—Z—CINN 361 (1 mg mAb protein with ˜25 ug paclitaxel covalently attached) is injected i.v. via tail vein into mice with the tumor. After 6 hours, mice that receive 0.1, 0.5 or 1.0 mg of A—Z—CINN 361 are anesthetized with a Ketamine/Rompun mixture. A 16G needle is used to create a hole in the skin and a 1 mm fiber optic probe is inserted up to the tumor. The tumor is exposed to white light for 5 minutes with a power of about 0.5 mW/cm^2. […] All mice are kept under “red lights” to prevent unnecessary light exposure and activation of A—Z—CINN 361 for 72 hours post injection, then returned to normal light/dark cycle.

Where [4] appears, read: in 7 days, light treatment 6 hours after i.v. injection, 0.1, 0.5 or 1.0 mg.

“A7-mAb-S-Mal-PEG3400-N—CINN-paclitaxel [A—Z—CINN 551]” gave a tumor shrinkage in assay [1] (setting [4]) greater than 50%. In assay [1] (light treatment), the “tumor size by 28 days” value is “less than 50 mm^3”. In assay [1] (no light stimulation), the “tumor size at 28 days” value was “smaller than 100 mm^3”.
“BR110-mAb-S-Mal-PEG3400-N—CINN-paclitaxel [A—Z—CINN 441]” returned a tumor shrinkage in assay [2] (setting [4]) greater than 50%. In addition, the “tumors by 28 days” value in assay [2] (light treatment) is reported as “not detectable”. The “tumor size at 28 days” value in assay [2] (no light stimulation) was “smaller than 50 mm”.
Consider “NR-LU-10 mAb-S-Mal-PEG3400-N—CINN-paclitaxel [A—Z—CINN 361]”, for which the tumor shrinkage in assay [3] (setting [4]) is given as greater than 50%. For the same substance, the “tumor size by 28 days” value in assay [3] (light treatment) is reported as “less than 50 mm^3”. Moreover, in assay [3] (no light stimulation), the “tumor size at 28 days” value is reported as “smaller than 100 mm^3”.
